We go through 1 compound from PMC12470768, “Mentha rotundifolia, a Source of Amoebicidal Agents Against Naegleria fowleri” (International Journal of Molecular Sciences, 2025).

Usually IC50 stands for the point on the concentration scale where inhibition reaches its midpoint. What is called IC90 is the point of the concentration-response curve where the effect stands at 90%. Higher therefore signals weaker potency.

The test system of data set [1] is N. fowleri ATCC® 30215™ cyst stage. The data set can be described thus: In vitro cysticidal activity against N. fowleri cysts (alamarBlue), strain ATCC 30215. It counts as cell-based. As to conditions: Naegleria fowleri, ATCC30215, mean ± SD. The method, then:
Following the assays against trophozoites, the compounds were further evaluated for their activity against the cyst stage of N. fowleri (ATCC® 30808™ and ATCC® 30215™). To induce cyst formation, the trophozoites were centrifuged, resuspended in MYAS medium, and incubated under slight agitation at room temperature for 10 days. After this, mature cysts were harvested, pretreated with 0.5% SDS, and seeded in a 96-well microtiter plate at 2 × 10^5 cells/mL. The drugs were tested in serial dilutions, and after 24 h of incubation at 37 °C, the medium was replaced with fresh Bactocasitone medium. The colorimetric alamarBlue® assay was used to assess cyst viability, with 10 µL of reagent added to each well. The plates were incubated for an additional 72 h at 37 °C, and fluorescence was measured using the EnSpire® Multimode Plate Reader (PerkinElmer, Madrid, Spain). The results were compared to a negative control (untreated cysts) and a positive control (amphotericin B and miltefosine). The IC50 values were determined through nonlinear regression analysis.
(Resazurin is reduced to fluorescent resorufin, in cell work by metabolically active cells.)

In data set [2] the test system is N. fowleri ATCC® 30215™ trophozoites. Description: In vitro amoebicidal activity against N. fowleri trophozoites (alamarBlue), strain ATCC 30215. In kind it is cell-based, Naegleria fowleri. To be noted: trophozoite stage. The procedure: (§1) The in vitro activity of the tested compounds against Naegleria fowleri trophozoites was evaluated using two clinical strains obtained from the American Type Culture Collection (ATCC® 30808™ and ATCC® 30215™). Trophozoites were cultured axenically at 37 °C in 2% (w/v) Bactocasitone medium (Thermo Fisher Scientific, Madrid, Spain), supplemented with 10% (v/v) fetal bovine serum (FBS), […] penicillin G sodium salt, and 0.5 mg/mL streptomycin sulfate (Sigma-Aldrich, Madrid, Spain). For cytotoxicity assessment, murine macrophages from the J774A.1 cell line (ATCC® TIB-67) were cultured in Dulbecco’s Modified Eagle’s Medium (DMEM) supplemented with 10% (v/v) FBS and 10 μg/mL gentamicin sulfate (Sigma-Aldrich, Madrid, Spain). The macrophages were maintained at 37 °C in a 5% CO2 atmosphere.
(§2) The trophocidal activity of the compounds was evaluated using the alamarBlue® colorimetric assay. N. fowleri trophozoites were seeded in duplicate in a 96-well microtiter plate at a concentration of 2 × 10^5 cells/mL and incubated for adhesion in Bactocasitone medium (2% v/w) (Thermo Fisher Scientific, Madrid, Spain), supplemented with 10% (v/v) fetal bovine serum (FBS), 0.3% penicillin G sodium salt, and 0.5 mg/mL streptomycin sulfate (Sigma-Aldrich, Madrid, Spain). Different concentrations of the evaluated compounds, prepared in fresh Bactocasitone medium, were added to the wells (50 µL per well). The negative control consisted of trophozoites incubated with the medium alone. After adding 10 µL of alamarBlue® reagent, the plates were incubated at 37 °C for 48 h with slight agitation. The data were analyzed using nonlinear regression with GraphPad Prism 9 software to determine the IC50 and IC90 values, which were then used for further studies on PCD [10].

The subject of data set [3] is N. fowleri trophozoites. The data set can be described thus: Chromatin condensation (Hoechst 33342 / propidium iodide staining). It counts as cell-based, Naegleria fowleri. To be noted: IC90, 24 h. The procedure:
(§3) To evaluate the induction of PCD, N. fowleri strains ATCC® 30808™ and ATCC® 30215™ were treated with the IC90 concentration of the compounds 7 and 10 for 24 h at 37 °C. After incubation, specific fluorescent markers were used to assess various detectable metabolic events, following the manufacturers’ instructions for each assay. Amphotericin B was used as a positive control, and untreated amoebae served as a negative control. Fluorescence imaging was performed using EVOS M5000 Cell Imaging System (Life Technologies, Madrid, Spain) and confocal microscope Leica DMI 4000 B equipped with Leica Application Suite X software version 3.5.5.19976 and Leica HC PL APO 63x/1.40 OIL CS2 objective (Leica Microsystems, Wetzlar, Germany). The fluorescence obtained was expressed as mean ± standard deviation from at least three independent experiments.
To evaluate the chromatin condensation, cells were stained with Hoechst 33,342 (1 µM) and propidium iodide (PI) (1 µM) for 20 min in the dark. Hoechst 33,342 binds to condensed chromatin in apoptotic cells and emits blue fluorescence, while PI enters cells with compromised membranes, indicative of late apoptosis or necrosis, and binds to DNA, emitting red fluorescence. […] Untreated cells were included as negative controls to establish baseline fluorescence levels.

For data set [4], the system named is N. fowleri ATCC® 30808™ trophozoites. Description: In vitro amoebicidal activity against N. fowleri trophozoites (alamarBlue), strain ATCC 30808. It counts as cell-based, Naegleria fowleri. The method, then:
as §1, §2

Data set [5] concerns N. fowleri trophozoites. Description: Autophagic vacuole formation (monodansylcadaverine). In kind it is cell-based, Naegleria fowleri. As to conditions: IC90, 24 h. The method, then:
as §3
Autophagy is a vital cellular process involved in the degradation and recycling of intracellular components, often activated in response to drug exposure. To evaluate autophagic activity, trophozoites were stained with monodansylcadaverine (MDC) (Sigma-Aldrich, St. Louis, MO, USA) during 30 min in the dark. […] The dye emits a characteristic cyan-blue fluorescence, allowing the detection and qualitative analysis of autophagic vacuoles in treated cells.

The subject of data set [6] is N. fowleri trophozoites. The data set can be described thus: Mitochondrial membrane potential (JC-1). To be noted: IC90, 24 h; compound 7 on ATCC 30808, compound 10 on ATCC 30215. In kind it is cell-based, Naegleria fowleri. The procedure:
as §3
Mitochondrial membrane potential (ΔΨm) was assessed using the JC-1 dye (1,1′,3,3′-tetraethyl-5,5′,6,6′-tetrachloroimidacarbocyanine iodide; Cayman Chemical, Madrid); following treatment, cells were harvested by centrifugation at 2500 rpm for 10 min and resuspended in JC-1 assay buffer. […] In cells with depolarized mitochondria, JC-1 remains in its monomeric form, emitting green fluorescence (emission at ~535 nm), indicating mitochondrial damage and a loss of ΔΨm.

On to `COC(=O)[C@]12CC[C@@H](C)[C@H](C)C1C1=CCC3[C@@]4(C)CC[C@H](OC(=O)CCC(=O)O)C(C)(C)C4CC[C@@]3(C)[C@]1(C)CC2` (stereo partly shown) [Compound 7, 3-O-(Hemisuccinyl)-methyl ursolate], for which the IC50 was 28 ± 1.59 µM in data set [1]; 29.7 ± 1.59 µM in data set [2] (Naegleria fowleri, ATCC30215, 48 h, mean ± SD); 28.7 ± 1.8 µM in data set [4] (Naegleria fowleri, ATCC30808, 48 h, trophozoite stage, 48 h, mean ± SD). Further, in data set [2] (selectivity index vs murine macrophages J774), the “N. fowleri ATCC 30215 SI (CC50/IC50)” value is given as more than 5.90. In the data set with N. fowleri trophozoites [3] (compound 7 on ATCC 30808), the “propidium iodide (red) fluorescence” value is “strong red fluorescence”. In addition, the “chromatin condensation (Hoechst 33342 fluorescence)” value in the data set with N. fowleri trophozoites [3] (compound 7 on ATCC 30808, compound 10 on ATCC 30215, amphotericin B on both) is recorded as “clear chromatin condensation”. In data set [4] (Naegleria fowleri, ATCC30808, trophozoites, compound 7 used on ATCC 30808 (Figure 8 legend)), this compound gave an IC90 of 39.5 µM. Also, the “N. fowleri ATCC 30808 SI (CC50/IC50)” value in data set [4] (trophozoite stage, selectivity index vs murine macrophages J774) is listed as more than 6.11. Also, in the data set on N. fowleri trophozoites [5], the “autophagic vesicles (MDC staining)” value was “autophagosome formation”. The “mitochondrial membrane potential (JC-1)” value with N. fowleri trophozoites [6] is “marked decrease in mitochondrial membrane potential”.
